Test results published in patent publication US12661409B2, “Target validation and profiling of the RNA targets of small molecules” (priority 2018, dated 2026).

How the values were obtained:
pri-miR-96 [1] = experiment: Microscale thermophoresis (MST) affinity for pri-miR-96; format: binding
mature miR-96 [2] = details: triple negative breast cancer (TNBC) cells; cited from earlier work
mature miR-96 [3] = experiment: RT-qPCR of mature miR-96 levels; format: cell-based; details: MDA-MB-231 TNBC cells; 2 complexed with Fe2+ (1 equivalent)
MDA-MB-231 cells = details: TNBC cells; cited from earlier work
pri-miR-96 [4] = experiment: RT-qPCR of pri-miR-96 levels; format: cell-based
FOXO1 protein = details: TNBC cells; cited from earlier work
DNA = experiment: Microscale thermophoresis (MST) affinity for DNA; format: binding

Molecule | Kd (pri-miR-96 [1]) | Effect on production of mature miR-96 (earlier study) (mature miR-96 [2]) | Effect on mature miR-96 levels (mature miR-96 [3]) | Effect on apoptosis (earlier study) (MDA-MB-231 cells) | Effect on pri-miR-96 levels (pri-miR-96 [4]; MDA-MB-231 TNBC cells, 2 complexed with Fe2+ (1 equivalent)) | Competition of the pri-miR-96 cleavage caused by 2 (pri-miR-96 [4]; increasing concentrations of 1 (5 to 500 nM), constant 2 (500 nM), MDA-MB-231 cells) | Effect on FOXO1 (earlier study) (FOXO1 protein) | Kd (DNA)
Targaprimir-96 [Compound 1] | 39 ± 18 nM | inhibited the production of mature miR-96 | reduced | triggered apoptosis | increased | effectively competed off | de-repressed | –
Cc1c(N)nc([C@H](CC(N)=O)NC[C@H](N)C(N)=O)nc1C(=O)N[C@H](C(=O)N[C@H](C)[C@@H](O)[C@H](C)C(=O)N[C@H](C(=O)NCCc1nc(-c2nc(C(=O)NCCCNCCCCN)cs2)cs1)[C@@H](C)O)[C@@H](O[C@@H]1O[C@@H](CO)[C@@H](O)[C@H](O)[C@@H]1O[C@@H]1O[C@H](CO)[C@@H](O)[C@H](OC(N)=O)[C@@H]1O)c1cnc[nH]1 [bleomycin A5] | – | – | – | – | – | – | – | ~1000 nM
